Assay results taken from PubChem BioAssay AID1259407 (Chemical Carcinogenesis Research Information System (CCRIS), 2018).
Active and inactive are the calls of the source. The rule behind the calls is not given here.

Test system: CCRIS mutagenicity, Ames/micronucleus/aberration tests
Assay: CCRIS mutagenicity studies
[1] = Test System: AMES SALMONELLA TYPHIMURIUM, Strain/Indicator: TA98, Metabolic Activation: NONE, Method: STANDARD PLATE
[2] = Test System: AMES SALMONELLA TYPHIMURIUM, Strain/Indicator: TA100, Metabolic Activation: NONE, Method: STANDARD PLATE
[3] = Test System: AMES SALMONELLA TYPHIMURIUM, Strain/Indicator: TA1535, Metabolic Activation: NONE, Method: STANDARD PLATE
[4] = Test System: AMES SALMONELLA TYPHIMURIUM, Strain/Indicator: TA1537, Metabolic Activation: NONE, Method: STANDARD PLATE
[5] = Test System: AMES SALMONELLA TYPHIMURIUM, Strain/Indicator: TA98, Metabolic Activation: NONE, Method: PREINCUBATION
[6] = Test System: AMES SALMONELLA TYPHIMURIUM, Strain/Indicator: TA100, Metabolic Activation: NONE, Method: PREINCUBATION
[7] = Test System: AMES SALMONELLA TYPHIMURIUM, Strain/Indicator: TA102, Metabolic Activation: NONE, Method: PREINCUBATION
[8] = Test System: AMES SALMONELLA TYPHIMURIUM, Strain/Indicator: TA104, Metabolic Activation: NONE, Method: PREINCUBATION
[9] = Test System: AMES SALMONELLA TYPHIMURIUM, Strain/Indicator: TA98, Metabolic Activation: RAT, LIVER, S-9, AROCLOR 1254, Method: STANDARD PLATE
[10] = Test System: AMES SALMONELLA TYPHIMURIUM, Strain/Indicator: TA100, Metabolic Activation: RAT, LIVER, S-9, AROCLOR 1254, Method: STANDARD PLATE

With CCOC(=O)CC1OCCc2c1[nH]c1c(CC)c(O)ccc21 (configuration not stated) the mutagenic call [1] was “inactive; negative”, the mutagenic call (Test System: AMES SALMONELLA TYPHIMURIUM, Strain/Indicator: TA98, Metabolic Activation: RAT, LIVER, S-9 (10 OR 50 µL/PLATE), Method: STANDARD PLATE) was “inactive; negative” and the mutagenic call [2] was “inactive; negative”. For the same compound, the mutagenic call (Test System: AMES SALMONELLA TYPHIMURIUM, Strain/Indicator: TA100, Metabolic Activation: RAT, LIVER, S-9 (10 OR 50 µL/PLATE), Method: STANDARD PLATE) was “inactive; negative”, the mutagenic call [3] was “active; positive” and the mutagenic call (Test System: AMES SALMONELLA TYPHIMURIUM, Strain/Indicator: TA1535, Metabolic Activation: RAT, LIVER, S-9 (10 OR 50 µL/PLATE), Method: STANDARD PLATE) was “active; positive”. For the same compound, the mutagenic call [4] was “inactive; negative”, the mutagenic call (Test System: AMES SALMONELLA TYPHIMURIUM, Strain/Indicator: TA1537, Metabolic Activation: RAT, LIVER, S-9 (10 OR 50 µL/PLATE), Method: STANDARD PLATE) was “inactive; negative” and the mutagenic call (Test System: E. COLI, Strain/Indicator: WP2 UVRA, Metabolic Activation: NONE, Method: STANDARD PLATE) was “inactive; negative”. The mutagenic call (Test System: E. COLI, Strain/Indicator: WP2 UVRA, Metabolic Activation: RAT, LIVER, S-9 (10 OR 50 µL/PLATE), Method: STANDARD PLATE) was “inactive; negative”.
With COc1c2ccoc2cc2oc(=O)ccc12 the mutagenic call [1] was “inactive; negative” and the mutagenic call (Test System: AMES SALMONELLA TYPHIMURIUM, Strain/Indicator: TA98, Metabolic Activation: RAT, LIVER, S-9, PHENOBARBITAL, Method: STANDARD PLATE) was “inactive; negative”.
For CC(=O)OCN(C)[N+](=O)[O-], the mutagenic call (Test System: AMES SALMONELLA TYPHIMURIUM, Strain/Indicator: TA100, Metabolic Activation: RAT, LIVER, S-9, AROCLOR 1254, Method: PREINCUBATION) was “active; positive”.
For OC1C[C@]23C=CC=C[C@@]2(C1)O3 (some centres not stated), the mutagenic call [1] was “inactive; negative”, the mutagenic call [2] was “inactive; negative” and the mutagenic call (Test System: AMES SALMONELLA TYPHIMURIUM, Strain/Indicator: TM677/8-AZAGUANINE, Metabolic Activation: NONE, Method: STANDARD PLATE) was “active; positive”.
CC1=CC(=O)C=C(C)C1=O was tested, and the mutagenic call [5] was “inactive; negative”, the mutagenic call (Test System: AMES SALMONELLA TYPHIMURIUM, Strain/Indicator: TA98, Metabolic Activation: RAT, LIVER, S-9, PHENOBARBITAL AND 5,6-BENZOFLAVONE, Method: PREINCUBATION) was “inactive; negative” and the mutagenic call [6] was “inactive; negative”. The mutagenic call (Test System: AMES SALMONELLA TYPHIMURIUM, Strain/Indicator: TA100, Metabolic Activation: RAT, LIVER, S-9, PHENOBARBITAL AND 5,6-BENZOFLAVONE, Method: PREINCUBATION) was “inactive; negative”, the mutagenic call [7] was “inactive; negative” and the mutagenic call (Test System: AMES SALMONELLA TYPHIMURIUM, Strain/Indicator: TA102, Metabolic Activation: RAT, LIVER, S-9, PHENOBARBITAL AND 5,6-BENZOFLAVONE, Method: PREINCUBATION) was “inactive; negative”. The mutagenic call [8] was “inactive; negative”, the mutagenic call (Test System: AMES SALMONELLA TYPHIMURIUM, Strain/Indicator: TA104, Metabolic Activation: RAT, LIVER, S-9, PHENOBARBITAL AND 5,6-BENZOFLAVONE, Method: PREINCUBATION) was “inactive; negative” and the mutagenic call (Test System: AMES SALMONELLA TYPHIMURIUM, Strain/Indicator: TA2637, Metabolic Activation: NONE, Method: PREINCUBATION) was “active; positive”. The mutagenic call (Test System: AMES SALMONELLA TYPHIMURIUM, Strain/Indicator: TA2637, Metabolic Activation: RAT, LIVER, S-9, PHENOBARBITAL AND 5,6-BENZOFLAVONE, Method: PREINCUBATION) was “inactive; negative”.
In the case of COc1ccc2nc(N)sc2c1, the mutagenic call (Test System: AMES SALMONELLA TYPHIMURIUM, Strain/Indicator: TA98, Metabolic Activation: HAMSTER, LIVER, S-9, AROCLOR 1254, Method: STANDARD PLATE) is reported as “active; positive”, the mutagenic call [1] is reported as “active; positive” and the mutagenic call [9] is reported as “active; positive”. The mutagenic call (Test System: AMES SALMONELLA TYPHIMURIUM, Strain/Indicator: TA100, Metabolic Activation: HAMSTER, LIVER, S-9, AROCLOR 1254, Method: STANDARD PLATE) was “active; positive”, the mutagenic call [2] was “inactive; negative” and the mutagenic call [10] was “active; positive”. For the same compound, the mutagenic call (Test System: AMES SALMONELLA TYPHIMURIUM, Strain/Indicator: TA1535, Metabolic Activation: HAMSTER, LIVER, S-9, AROCLOR 1254, Method: STANDARD PLATE) was “active; positive”, the mutagenic call [3] was “inactive; negative” and the mutagenic call (Test System: AMES SALMONELLA TYPHIMURIUM, Strain/Indicator: TA1535, Metabolic Activation: RAT, LIVER, S-9, AROCLOR 1254, Method: STANDARD PLATE) was “active; positive”. For the same compound, the mutagenic call (Test System: AMES SALMONELLA TYPHIMURIUM, Strain/Indicator: TA1537, Metabolic Activation: HAMSTER, LIVER, S-9, AROCLOR 1254, Method: STANDARD PLATE) was “active; positive”, the mutagenic call [4] was “inactive; negative” and the mutagenic call (Test System: AMES SALMONELLA TYPHIMURIUM, Strain/Indicator: TA1537, Metabolic Activation: RAT, LIVER, S-9, AROCLOR 1254, Method: STANDARD PLATE) was “active; positive”. The mutagenic call (Test System: AMES SALMONELLA TYPHIMURIUM, Strain/Indicator: TA1538, Metabolic Activation: HAMSTER, LIVER, S-9, AROCLOR 1254, Method: STANDARD PLATE) was “active; positive”, the mutagenic call (Test System: AMES SALMONELLA TYPHIMURIUM, Strain/Indicator: TA1538, Metabolic Activation: NONE, Method: STANDARD PLATE) was “active; positive” and the mutagenic call (Test System: AMES SALMONELLA TYPHIMURIUM, Strain/Indicator: TA1538, Metabolic Activation: RAT, LIVER, S-9, AROCLOR 1254, Method: STANDARD PLATE) was “active; positive”. For the same compound, the mutagenic call (Test System: MOUSE LYMPHOMA, Strain/Indicator: L5178Y (TK+/TK-), Metabolic Activation: NONE, Method: SUSPENSION/PLATE) was “inactive; negative. reevaluation of results: negative” and the mutagenic call (Test System: MOUSE LYMPHOMA, Strain/Indicator: L5178Y (TK+/TK-), Metabolic Activation: RAT, LIVER, S-9, AROCLOR 1254, Method: SUSPENSION/PLATE) was “active; positive. reevaluation of results: positive”.
For CC(=O)n1ccnc1, the mutagenic call (Test System: AMES SALMONELLA TYPHIMURIUM, Strain/Indicator: TA97, Metabolic Activation: NONE, Method: STANDARD PLATE) was “inactive; negative”, the mutagenic call (Test System: AMES SALMONELLA TYPHIMURIUM, Strain/Indicator: TA97, Metabolic Activation: RAT, LIVER, S-9, AROCLOR 1254, Method: STANDARD PLATE) was “inactive; negative” and the mutagenic call [1] was “inactive; negative”. For the same compound, the mutagenic call [9] was “inactive; negative”, the mutagenic call [2] was “inactive; negative” and the mutagenic call [10] was “inactive; negative”. For the same compound, the mutagenic call (Test System: AMES SALMONELLA TYPHIMURIUM, Strain/Indicator: TA102, Metabolic Activation: NONE, Method: STANDARD PLATE) was “inactive; negative” and the mutagenic call (Test System: AMES SALMONELLA TYPHIMURIUM, Strain/Indicator: TA102, Metabolic Activation: RAT, LIVER, S-9, AROCLOR 1254, Method: STANDARD PLATE) was “inactive; negative”.
In the case of C/C(C(=O)O)=C(\Cl)C(=O)O, the mutagenic call [5] is reported as “inactive; negative”, the mutagenic call [6] is reported as “inactive; negative” and the mutagenic call [8] is reported as “inactive; negative”.
Nc1cccc(-c2ccccc2)c1 was tested, and the mutagenic call [5] was “inactive; negative”, the mutagenic call (Test System: AMES SALMONELLA TYPHIMURIUM, Strain/Indicator: TA98, Metabolic Activation: RAT LIVER S-9, AROCLOR 1254, Method: PREINCUBATION) was “inactive; negative” and the mutagenic call (Test System: AMES SALMONELLA TYPHIMURIUM, Strain/Indicator: TA98, Metabolic Activation: RAT, LIVER, S-9, AROCLOR 1254 (4%), Method: STANDARD PLATE) was “active; positive”. For the same compound, the mutagenic call [9] was “inactive; negative”, the mutagenic call [6] was “inactive; negative” and the mutagenic call (Test System: AMES SALMONELLA TYPHIMURIUM, Strain/Indicator: TA100, Metabolic Activation: RAT LIVER S-9, AROCLOR 1254, Method: PREINCUBATION) was “inactive; negative”. For the same compound, the mutagenic call [10] was “inactive; negative”.
For CN1CC=C(c2ccccc2)CC1, the mutagenic call [6] was “inactive; negative” and the mutagenic call [7] was “inactive; negative”.
With O=C1OCC(CBr)=C1Br the mutagenic call [2] was “active; positive”.
In the case of OC/C=C/C=C/CO, the mutagenic call (Test System: CHINESE HAMSTER V-79, Strain/Indicator: V-79 (HGPRT)/8-AZAGUANINE, Metabolic Activation: NONE) is reported as “inactive; negative”.
In the case of CCCCCN(N=O)C(N)=O, the mutagenic call (Test System: E. COLI B, Strain/Indicator: H/R30R, Metabolic Activation: NONE) is reported as “active; positive” and the mutagenic call (Test System: E. COLI B, Strain/Indicator: HS30R, Metabolic Activation: NONE) is reported as “active; positive”.
